The values below come from patent US9434711B2 (Janssen Pharmaceutica, NV, priority 2007, dated 2016).

For the assay, the target named is canine TRPM8 (Canis lupus familiaris, UniProt Q1A7N1). Put plainly: In Vitro Canine TRPM8 Functional Assay (Ca2+ fluorescence, icilin activation). Format: cell-based. The following applies: for inhibition at 0.2 µM / % Inh @ 0.2 (μM): compound at 0.2 μM; for inhibition at 0.2 µM / inhibition at 0.5 µM / % Inh @ 0.2 (μM): canine TRPM8, icilin activation; for inhibition at 0.2 µM: read-out: % Inh @ 0.2; for IC50: HEK293 cells stably expressing canine TRPM8, icilin activation, eight-point dose-response, read-out: IC50; for inhibition at 0.5 µM: compound at 0.5 μM, read-out: % Inh @ 0.5. An outline of the steps: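 Canine TRPM8 stably expressed in HEK293; compound added 5 min before icilin challenge (~80% max response), with fluorescent Ca2+ signal tracked throughout.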
Chain of canine TRPM8 (Q1A7N1 1-1104): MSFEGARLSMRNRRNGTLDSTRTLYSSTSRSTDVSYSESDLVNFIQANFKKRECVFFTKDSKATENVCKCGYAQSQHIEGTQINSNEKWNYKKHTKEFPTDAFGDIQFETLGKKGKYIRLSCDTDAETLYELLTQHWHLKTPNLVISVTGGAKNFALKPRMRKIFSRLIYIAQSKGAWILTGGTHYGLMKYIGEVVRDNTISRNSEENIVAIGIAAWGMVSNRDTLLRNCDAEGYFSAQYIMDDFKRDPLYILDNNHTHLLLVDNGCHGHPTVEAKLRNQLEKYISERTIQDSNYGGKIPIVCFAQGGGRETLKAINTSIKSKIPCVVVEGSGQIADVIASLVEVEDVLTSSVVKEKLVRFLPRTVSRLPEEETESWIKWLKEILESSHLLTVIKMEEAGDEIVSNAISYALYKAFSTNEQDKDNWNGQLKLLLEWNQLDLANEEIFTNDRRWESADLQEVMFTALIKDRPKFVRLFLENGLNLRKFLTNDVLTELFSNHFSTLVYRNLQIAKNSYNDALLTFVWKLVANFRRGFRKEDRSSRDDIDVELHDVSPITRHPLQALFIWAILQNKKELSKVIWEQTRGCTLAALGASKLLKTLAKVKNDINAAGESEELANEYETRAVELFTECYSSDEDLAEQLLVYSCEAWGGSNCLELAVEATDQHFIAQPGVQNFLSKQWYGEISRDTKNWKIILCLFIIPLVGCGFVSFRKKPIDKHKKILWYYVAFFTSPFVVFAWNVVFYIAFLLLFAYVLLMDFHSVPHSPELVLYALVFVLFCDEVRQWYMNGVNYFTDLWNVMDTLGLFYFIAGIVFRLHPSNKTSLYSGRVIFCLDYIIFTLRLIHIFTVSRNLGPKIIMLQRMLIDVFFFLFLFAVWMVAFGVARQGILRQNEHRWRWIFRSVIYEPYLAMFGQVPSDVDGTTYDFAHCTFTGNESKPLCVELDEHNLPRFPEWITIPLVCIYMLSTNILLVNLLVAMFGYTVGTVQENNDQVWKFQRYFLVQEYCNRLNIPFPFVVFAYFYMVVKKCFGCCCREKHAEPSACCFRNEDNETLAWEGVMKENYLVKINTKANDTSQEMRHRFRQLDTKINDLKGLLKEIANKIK

`O=S(=O)(c1ccc(Br)cc1)N(CCC1CC1)c1cc2ccccc2s1` [Compound 654, N-(Benzo[b]thiophen-2-yl)-N-(2-cyclopropyl-ethyl)-4-bromo-benzenesulfonamide]: the inhibition at 0.2 µM is 56%. Regarding `O=S(=O)(c1ccccc1)N(Cc1ccc(Cl)cc1)c1sc2ccccc2c1Cl` [Compound 158, N-(3-Chloro-benzo[b]thiophen-2-yl)-N-(4-chloro-benzyl)-benzenesulfonamide], the IC50 was found to be 10.4 nM and the inhibition at 0.5 µM is 94%. Turning to `O=C(O)c1ccc(S(=O)(=O)N(CCCCC(F)(F)F)c2cc3ccccc3s2)c(F)c1` [Compound 685, N-(Benzo[b]thiophen-2-yl)-N-(5,5,5-trifluoro-pentyl)-2-fluoro-4-carboxy-benzenesulfonamide], the IC50 stood at 11.9 nM and the inhibition at 0.2 µM was determined as 102%. On to `CCS(=O)(=O)N(Cc1ccc(F)c(C(F)(F)F)c1)c1sc2ccccc2c1[C@H](C)O` [Compound 534], for which the IC50 was found to be 2 nM and the “% Inh @ 0.2 (μM)” value came to 102%. With `O=S(=O)(c1ccccc1)N(Cc1ccc(F)c(F)c1)c1sc2ccccc2c1CO` [Compound 213, N-(3,4-Difluoro-benzyl)-N-(3-hydroxymethyl-benzo[b]thiophen-2-yl)-benzenesulfonamide], the IC50 is 1.4 nM and the inhibition at 0.2 µM came out at 95%. On the same counts, the results for `CC(=O)c1c(N(Cc2ccc(F)c(C(F)(F)F)c2)S(=O)(=O)c2ccc(Br)cc2)sc2ccccc12` [Compound 386, N-(3-Acetyl-benzo[b]thiophen-2-yl)-4-bromo-N-(4-fluoro-3-trifluoromethyl-benzyl)benzenesulfonamide] are 12.8 nM and 101%.

In the case of `CC(=O)CCCN(c1sc2ccccc2c1Br)S(=O)(=O)c1ccccc1` [Compound 253, N-(3-Bromo-benzo[b]thiophen-2-yl)-N-(4-oxo-pentyl)-benzenesulfonamide], the IC50 stood at 27.3 nM and the inhibition at 0.2 µM was found to be 101%. Turning to `Cc1c(N(Cc2cccc3cccnc23)S(=O)(=O)c2ccc3ncccc3c2)sc2ccccc12` [Compound 32, N-(3-Methyl-benzo[b]thiophen-2-yl)-N-(quinolin-8-ylmethyl)-quinoline-6-sulfonamide], the IC50 was determined as 37 nM and the inhibition at 0.5 µM stood at 100%. As to `Nc1ccc(S(=O)(=O)N(CCCCC(F)(F)F)c2sc3ccccc3c2Cl)cc1Cl` [Compound 667, 4-Amino-3-chloro-N-(3-chloro-benzo[b]thiophen-2-yl)-N-(5,5,5-trifluoro-pentyl)-benzenesulfonamide], the IC50 amounted to 30.1 nM and the inhibition at 0.2 µM turned out to be 103%. On the same counts, the results for `Cc1c(N(CCC(F)(F)F)S(=O)(=O)c2ccc(-c3noc(=O)[nH]3)cc2)sc2ccccc12` [Compound 599, N-(3-Methyl-benzo[b]thiophen-2-yl)-N-(3,3,3-trifluoro-propyl)-4-(5-oxo-4,5-dihydro-[1,2,4]oxadiazol-3-yl)-benzenesulfonamide] are 16.1 nM and 101%. For `COC(=O)CCS(=O)(=O)N(Cc1ccc(OC(F)(F)F)cc1)c1sc2ccccc2c1C` [Compound 794, N-(3-Methyl-benzo[b]thiophen-2-yl)-N-(4-trifluoromethoxy-benzyl)-2-carbomethoxy-ethanesulfonamide], the 50% inhibitory concentration (IC50) was determined as 29.4 nM and the inhibition at 0.2 µM is 101%. On the same counts, the results for `O=C(O)c1ccc(S(=O)(=O)N(CC23CC4CC(CC(C4)C2)C3)c2sc3ccccc3c2Br)cc1` [Compound 278, N-(3-Bromo-benzo[b]thiophen-2-yl)-N-(adamant-1-yl-methyl)-4-carboxy-benzenesulfonamide] are 1 nM and 98%. Take `CCCCN(c1sc2ccccc2c1C(N)=O)S(=O)(=O)c1ccc(C(=O)O)cc1` [Compound 468, N-(Butyl)-N-(3-carbamoyl-benzo[b]thiophen-2-yl)-4-carboxy-benzenesulfonamide]: the inhibition at 0.2 µM was 16%.

Turning to `CS(=O)(=O)Nc1cccc(S(=O)(=O)N(CCC(F)(F)F)c2sc3ccccc3c2Br)c1` [Compound 715, N-(3-Bromo-benzo[b]thiophen-2-yl)-3-methanesulfonylamino-N-(3,3,3-trifluoro-propyl)-benzenesulfonamide], the IC50 is 24 nM and the inhibition at 0.2 µM came to 101%. In the case of “N-(3-Methyl-benzo[b]thiophen-2-yl)-N-(4-fluoro-3-trifluoromethyl-benzyl)-4-thiomethyl-pyridin-3-yl-sulfonamide [Compound 378]”, the 50% inhibitory concentration (IC50) is 97 nM and the “% Inh @ 0.2 (μM)” value was found to be 85%. For `Cc1c(N(Cc2ccc(F)c(C(F)(F)F)c2)S(=O)(=O)c2cc(C(=O)O)cs2)sc2ccccc12` [Compound 527, N-(3-Methyl-benzo[b]thiophen-2-yl)-N-(4-fluoro-3-trifluoromethyl-benzyl)-4-carboxy-thien-2-ylsulfonamide], the 50% inhibitory concentration (IC50) was found to be 5 nM and the inhibition at 0.2 µM turned out to be 101%.

As to `O=S1NC(c2ccc(S(=O)(=O)N(CCC3CC3)c3sc4ccccc4c3Br)cc2)=NO1` (stereo not drawn) [Compound 624, N-(3-Bromo-benzo[b]thiophen-2-yl)-N-(cyclopropyl-ethyl)-4-(3H-[1,2,3,5]oxathiadiazole-2-oxide)-benzenesulfonamide], the IC50 was determined as 13.4 nM and the “% Inh @ 0.2 (μM)” value was 103%.

Take `COC(=O)CCS(=O)(=O)N(Cc1cccc(OC(F)(F)F)c1)c1sc2ccccc2c1C` [Compound 760, N-(3-Methyl-benzo[b]thiophen-2-yl)-N-(3-trifluoromethoxy-benzyl)-2-carbomethoxy-ethanesulfonamide]: the IC50 worked out at 45.9 nM and the inhibition at 0.2 µM stood at 94%.

In the case of `Cc1c(N(CCC2CC2)S(=O)(=O)c2ccc(C(=O)N3CCN(C)CC3)cc2)sc2ccccc12` [Compound 777, N-(2-Cyclopropyl-ethyl)-N-(3-methyl-benzo[b]thiophen-2-yl)-4-(4-methyl-piperazine-1-carbonyl)-benzenesulfonamide], the inhibition at 0.2 µM turned out to be 56%.

Consider `CCS(=O)(=O)N(Cc1ccc(F)c(C(F)(F)F)c1)c1sc2ccccc2c1C=O` [Compound 210, N-(4-Fluoro-3-trifluoromethyl-benzyl)-N-(3-formyl-benzo[b]thiophen-2-yl)-ethanesulfonamide], for which the IC50 came out at 8 nM and the inhibition at 0.2 µM was found to be 91%. As to `O=S(=O)(CC(F)(F)F)N(Cc1ccc(F)c(C(F)(F)F)c1)c1sc2ccccc2c1CO` [Compound 704, N-(3-Hydroxymethyl-benzo[b]thiophen-2-yl)-N-(4-fluoro-3-trifluoromethyl-benzyl)-2,2,2-trifluoro-ethanesulfonamide], the inhibition at 0.2 µM amounted to 102%.

As to `Cc1c(N(CCCCC(F)(F)F)S(=O)(=O)c2cccc3nccnc23)sc2ccccc12` [Compound 721, N-(3-Methyl-benzo[b]thiophen-2-yl)-N-(5,5,5-trifluoro-pentyl)-quinoxalin-5-yl-sulfonamide], the IC50 is 4.2 nM and the inhibition at 0.2 µM is 102%. On the same counts, the results for `CCCCN(c1sc2ccccc2c1C(C)(C)O)S(=O)(=O)c1ccc(C(=O)OC)cc1` [Compound 516, N-(Butyl)-N-(3-(1-hydroxy-1-methyl-ethyl)-benzo[b]thiophen-2-yl)-4-carbomethoxy-benzenesulfonamide] are 19 nM and 102%.

As usually defined, the IC50 is the point on the concentration scale where inhibition reaches its midpoint.
